Source: patent US4812469A, “Acetamides derived from 2,3-dihydro-3-phenyl-2-benzofuranone” (Adir Et Cie, priority 1987, dated 1989)
Counter-ions that a name gives are not always drawn. Like-named read-outs stand apart in the source and are kept apart here.

Key:
[1] = tested on: survival of cerebral tissue during acute hypoxia; assay: Acute hypobaric hypoxia in mice, survival time of the brain (final respiratory gasp); type: in vivo, mice (male CD1)
Procedure: (§1) The compounds of the present invention were tested in respect of their capacity to prolong the survival of cerebral tissue during acute hypoxia in mice, or to maintain the level of tissue energy-rich compounds in rats subjected to a fall in the oxygen supply [Pharmacology of Cerebral Ischemia, ([…]) p. 334-339 Elsevier Science Publishers B.V., J. Krieglstein ed.]. […] Forsch. Drug Res. (1986), 36 II No. 9, p. 1314-1320].
The survival of the brain is assessed by measuring the time at which the final respiratory gasp is observed.
The survival time of a treated batch is compared with that of a control batch receiving only the solvent.

[2] = tested on: tissue energy-rich compounds (ATP, ADP, AMP) of the brain; assay: Acute normobaric hypoxia in rats, brain tissue energy-rich compounds (ATP level and energy content); type: in vivo, rats (male Fischer 344); conditions: for % inhibition of the effects of hypoxia: ATP / % inhibition of the effects of hypoxia: EC (energy content): 3% oxygen for 2 minutes
Procedure: as §1
Whereas the control rats breathe a gaseous mixture containing 21% of oxygen and 79% of nitrogen, the rats subjected to hypoxia breath a mixture of 3% oxygen and 97% nitrogen for 2 minutes.
At the end of the hypoxic period, the animals are rapidly sacrificed by total immersion in liquid nitrogen. The frozen brain is removed and the energy-rich compounds (ATP, ADP, AMP) are extracted and assayed by the luciferin luminescence method.
The tissue energy content (EC) is calculated according to ATKINSON's formula: [formula]

[3] = Mus musculus, ip, 30 mg/kg I.P., 30 minutes before hypoxia (160 mbar), mice, vs control batch, read-out: Percentage increase in the survival time
[4] = Mus musculus, ip, 100 mg/kg I.P., 30 minutes before hypoxia (160 mbar), mice, vs control batch, read-out: Percentage increase in the survival time
[5] = Mus musculus, ip, read-out: Percentage increase in the survival time
[6] = 100 mg/kg I.P., listed as pyritinol

## NC(=O)Cc1ccc2c(c1)C(c1ccccc1)C(=O)O2 (centres unmarked) [Example 1, 2-(2,3-Dihydro-2-oxo-3-phenyl-5-benzofuranyl)acetamide]
[1]; Mus musculus, ip, 3 mg/kg I.P., 30 minutes before hypoxia (160 mbar), mice, vs control batch, read-out: Percentage increase in the survival time
  ILS at 3 mg/kg: 24%
[1]; [3]
  ILS at 30 mg/kg: 46%
[1]; [4]
  ILS at 100 mg/kg: 170%
[2]; 30 mg/kg I.P.
  % inhibition of the effects of hypoxia: ATP: 64.6%
  % inhibition of the effects of hypoxia: EC (energy content): 66%
[2]; 30 mg/kg, compared with meclofenoxate 300 mg/kg
  effect on the ATP level and the energy content (in words): Such an effect is observed with a dose of 30 mg/kg

## O=C1Oc2ccc(CC(=O)N3CCN(c4ccc(C(F)(F)F)cn4)CC3)cc2C1c1ccccc1 (centres unmarked) [Example 3, 2-(2,3-Dihydro-2-oxo-3-phenyl-5-benzofuranyl)-1-[4-(5-trifluoromethyl-2-pyridyl)piperazinyl]-1-oxoethane]
[1]; [3]
  ILS at 30 mg/kg: 36%
[1]; [4]
  ILS at 100 mg/kg: 57%

## O=C1Oc2ccc(CC(=O)N3CCN(Cc4ccc5c(c4)OCO5)CC3)cc2C1c1ccccc1 (centres unmarked) [Example 4]
[1]; [5]
  ILS at 3 mg/kg: 43%
  ILS at 10 mg/kg: 49%
  ILS at 30 mg/kg: 54%
  ILS at 100 mg/kg: 133%

## CN1CCN(C(=O)Cc2ccc3c(c2)C(c2ccccc2)C(=O)O3)CC1 (centres unmarked) [Example 5, 2-(2,3-Dihydro-2-oxo-3-phenyl-5-benzofuranyl)-1-(4-methylpiperazinyl)-1-oxoethane tartrate]
[1]; [5]
  ILS at 100 mg/kg: 111%

## NC(=O)Cc1cccc2c1OC(=O)C2c1ccccc1 (centres unmarked) [Example 8, 2-(2,3-Dihydro-2-oxo-3-phenyl-7-benzofuranyl)acetamide]
[1]; [4]
  ILS at 100 mg/kg: 13%

## NC(=O)Cc1cc(Cl)cc2c1OC(=O)C2c1ccccc1 (centres unmarked) [Example 9, 2-(5-Chloro-2,3-dihydro-2-oxo-3-phenyl-7-benzofuranyl)acetamide]
[1]; [4]
  ILS at 100 mg/kg: 23%

## CN(C)CCOC(=O)COc1ccc(Cl)cc1 [Meclofenoxate, meclofenoxate, reference compound]
[1]; [5]
  ILS at 30 mg/kg: 4%
  ILS at 100 mg/kg: 22%
[2]; 300 mg/kg I.P.
  % inhibition of the effects of hypoxia: ATP: 59.7%
  % inhibition of the effects of hypoxia: EC (energy content): 69.6%

## NC(=O)CN1CCCC1=O [Piracetam, piracetam, reference compound]
[1]; [4]
  ILS at 100 mg/kg: 11%

## Cc1ncc(CSSCc2cnc(C)c(O)c2CO)c(CO)c1O [Pyritinol, pyritinol]
[1]; 100 mg/kg, mice, p<0.05
  significance of the protection (brain survival time): significant
[1]; [3]
  ILS at 30 mg/kg: 13%
[1]; [4]
  ILS at 100 mg/kg: 27%
[2]; 30 mg/kg I.P.
  % inhibition of the effects of hypoxia: ATP: 11.1%
  % inhibition of the effects of hypoxia: EC (energy content): 16.6%
[2]; 100 mg/kg I.P.
  % inhibition of the effects of hypoxia: ATP: 23.3%
  % inhibition of the effects of hypoxia: EC (energy content): 35.2%
[2]; [6]
  % inhibition of the effects of hypoxia: ATP: 23%
  % inhibition of the effects of hypoxia: EC (energy content): 35%
